The values below come from patent US9827221B2, “Crystalline solids of a metAP-2 inhibitor and methods of making and using same” (Zafgen, Inc., priority 2010, dated 2017).

Values after ≈ are worked out from the molar mass of the structure shown.

Format in all cases: physicochemical
Series [1] can be described thus: Stability of the crystalline form to grinding (mortar and pestle; PLM, XRPD). To be noted: ca. 500 mg ground with mortar and pestle for approximately 5 minutes. The protocol: A sample (ca. 500 mg) from the scale-up of crystalline compound as in Example 2 was placed onto a mortar (Agate material, H: 35 mm, L: 77 mm). The sample was then ground using a pestle (length: 80 mm; grinding diameter: 17 mm) for approximately 5 minutes. Throughout the grinding procedure, the sample was allowed to stand for ca. 10 seconds intermittently to ensure that significant heat was not generated. PLM indicated birefrigent material with particle sizes measuring between about 20 μm and 80 μm in length.

The nature of series [2]: Solubility in solvent (e.g. aqueous solution that may include a buffer) with pH greater or equal to about 8.0. To be noted: pH 8, aqueous buffer, ca. 20° C.
Series [3] can be described thus: Solubility in diisopropyl ether. To be noted: organic solvent or mixture.
The nature of series [4]: Solid-form stability of Form C on storage (conversion to Form A). The protocol: A sample of amorphous material of 6-O-(4-dimethylaminoethoxy)cinnamoyl fumagillol was exposed to vapors of neat trichloroethane at ambient temperature. The amorphous form readily deliquesced. The deliquesced sample was stored in a cold environment and evaporated to dryness using a Genevac centrifuge evaporator. The sample was then sealed, submerged in dry ice for ca. 15 minutes and stored in a freezer ([…]). The sample remained glassy during storage in the freezer (−20° C., 9 days), and was then stored at 5° C. (9 days), resulting in crystalline, Form C (see FIG. 13 for micrograph). A portion of the Form C sample was left at ambient temperature.

In general, solubility refers to how much of the substance goes into solution per volume. With `CO[C@@H]1[C@H](OC(=O)/C=C/c2ccc(OCCN(C)C)cc2)CCC2(CO2)[C@H]1C1(C)OC1CC=C(C)C` (stereo partly shown) [Form A, 6-O-(4-dimethylaminoethoxy)cinnamoyl fumagillol], in series [1], the “crystallinity after grinding (XRPD)” value was “remained highly crystalline”. Besides, the values for the solubility in series [2], in series [3] (50° C.) and in series [3] (room temperature (ca. 20° C.)) were under 0.2 mg/mL, about 102 mg/mL (≈ 204 mM) and about 25 mg/mL (≈ 50 mM), respectively.

Take `CO[C@@H]1[C@H](OC(=O)/C=C/c2ccc(OCCN(C)C)cc2)CCC2(CO2)[C@H]1C1(C)OC1CC=C(C)C` (stereo partly shown) [Form C, 6-O-(4-dimethylaminoethoxy)cinnamoyl fumagillol]: in series [4] (Form C relative to Form A), the “relative stability of the crystalline forms” value is given as “metastable relative to Form A”. Moreover, the “solid form conversion on storage” value in series [4] (sample left at ambient temperature) and in series [4] (sample stored at 5° C.) was “converted to Form A after three days” in each case.
